# In PMC4106271 (Journal of Medicinal Chemistry, 2014):
# Assay: Estimation of plasma levels after ip application (UHPLC-MS/MS)
# Assay type: in vivo, mice
# Details: mouse plasma
# Experimental: At each time point, mice were euthanized and blood samples (500–800 μL) were collected and compiled into ethylenediaminetetraacetic acid (EDTA)-coated microtubes (1.6 mg of EDTA/sample) and centrifuged at 12 000 rpm for 5 min at 4 °C. Plasma samples were transferred into 1.5 mL tubes and stored at −80 °C until analysis.
# Plasma calibrators were prepared by spiking corresponding stock solutions into a blank plasma sample.
# Samples were vortexed at 1400 rpm for 10 min and then centrifuged at 13200g for 20 min at 10 °C. The supernatant was transferred into a 96-deep-well plate for drying under nitrogen gas flow (Evaporex EVX-96, Apricot Designs, Monrovia, CA) and redissolved in 200 μL of injection solvent (65% 10 mM ammonium formate + 0.05% formic acid, 35% acetonitrile + 0.05% formic acid) before MS/MS analysis.
# Separation was performed at 55 °C on a Kinetex XB-C18 column, 100 × 2.1 mm, 1.7 μm particle size (Phenomenex; Torrance, CA); mobile phase of (A) 0.05% formic acid in 10 mM ammonium formate and (B) 0.05% formic acid in ACN, gradient 40% B for 1 min, linear gradient to reach 88% B after 5.3 min, shifted to 100% B for 1 min, and back to equilibrium condition of 40% B for 0.7 min; flow rate of 0.5 mL/min; total run time of 7 min. Sample injected volume was 1 μL and autosampler was set at 10 °C. Needle wash solution was MeOH/ACN/IPA/H2O (1:1:1:1 v/v/v/v). Flexible cube was set at a flow rate of 1 mL/min for 20 s.
structure (smiles),measurement,setting,value
"CCCN(CCC)C(=O)/C=C/C=C/c1ccc2c(c1)OCO2 [Compound 23, (2E,4E)-5-(1,3-benzodioxol-5-yl)-N,N-dipropyl-2,4-pentadienamide]",mean plasma concn,1 mg/kg body weight ip,60.6 ± 14.5 ng/mL
same,mean plasma concn,3 mg/kg body weight ip,194.0 ± 50.2 ng/mL
same,mean plasma concn,10 mg/kg body weight ip,593.0 ± 92.4 ng/mL
